# Assay results published in ChEMBL document CHEMBL3792292, “Development of a potent and selective FLT3 kinase inhibitor by systematic expansion of a non-selective fragment-screening hit” (Bioorg Med Chem Lett, 2016).
# Legend:
# [1] = molecular target: Proto-oncogene tyrosine-protein kinase Src (Homo sapiens) (UniProt P12931); assay: Inhibition of full length human N-terminal GST-tagged SRC (1 to 536 residues) expressed in baculovirus expression system using fluorescence labelled srctide as substrate at 50 times IC50 by electrophoretic mobility shift assay relative to control
# Proto-oncogene tyrosine-protein kinase Src (Homo sapiens), sequence (P12931 2-536 limits assumed): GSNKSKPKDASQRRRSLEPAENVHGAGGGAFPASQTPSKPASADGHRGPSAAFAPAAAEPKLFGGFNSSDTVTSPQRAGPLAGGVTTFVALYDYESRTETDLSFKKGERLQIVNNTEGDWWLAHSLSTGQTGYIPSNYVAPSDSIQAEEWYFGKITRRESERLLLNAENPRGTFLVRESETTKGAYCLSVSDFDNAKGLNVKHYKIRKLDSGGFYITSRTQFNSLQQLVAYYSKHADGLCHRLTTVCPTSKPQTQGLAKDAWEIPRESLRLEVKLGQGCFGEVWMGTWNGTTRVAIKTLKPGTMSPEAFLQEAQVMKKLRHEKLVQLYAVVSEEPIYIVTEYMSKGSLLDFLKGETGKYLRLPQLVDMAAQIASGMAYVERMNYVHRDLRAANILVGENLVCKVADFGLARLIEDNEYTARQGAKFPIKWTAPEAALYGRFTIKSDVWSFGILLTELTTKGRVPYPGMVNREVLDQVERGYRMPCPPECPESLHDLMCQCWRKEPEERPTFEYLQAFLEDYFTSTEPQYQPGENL
# [2] = molecular target: RAC-alpha serine/threonine-protein kinase (Homo sapiens) (UniProt P31749); assay: Inhibition of human N-terminal GST-tagged AKT1 catalytic domain (104 to 480 residues) expressed in baculovirus expression system using fluorescence labelled crosstide as substrate at 50 times IC50 by electrophoretic mobility shift assay relative to control
# RAC-alpha serine/threonine-protein kinase (Homo sapiens), sequence (P31749 whole entry, the tested form may be a part): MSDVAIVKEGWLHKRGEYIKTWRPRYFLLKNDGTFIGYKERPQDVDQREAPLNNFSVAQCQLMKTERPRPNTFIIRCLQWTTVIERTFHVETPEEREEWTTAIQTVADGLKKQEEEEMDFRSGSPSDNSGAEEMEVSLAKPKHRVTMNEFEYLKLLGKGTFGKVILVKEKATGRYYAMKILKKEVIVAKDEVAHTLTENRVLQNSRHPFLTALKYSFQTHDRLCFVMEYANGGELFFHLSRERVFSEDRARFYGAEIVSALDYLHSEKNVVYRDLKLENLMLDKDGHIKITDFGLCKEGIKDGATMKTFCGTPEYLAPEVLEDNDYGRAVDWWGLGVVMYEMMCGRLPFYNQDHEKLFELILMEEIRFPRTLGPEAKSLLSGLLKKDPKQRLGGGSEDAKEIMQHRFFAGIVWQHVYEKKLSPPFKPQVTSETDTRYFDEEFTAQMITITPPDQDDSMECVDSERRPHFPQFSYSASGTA
# [3] = molecular target: T1, Testis-specific serine/threonine-protein kinase 1 (Homo sapiens) (UniProt Q9BXA7); assay: (§1) Inhibition of full length human N-terminal GST-tagged TSSK1 (1 to 367 residues) expressed in baculovirus expression system using fluorescence labelled GS peptide substrate at 50 times IC50 by electrophoretic mobility shift assay relative to control
# T1 sequence (whole entry): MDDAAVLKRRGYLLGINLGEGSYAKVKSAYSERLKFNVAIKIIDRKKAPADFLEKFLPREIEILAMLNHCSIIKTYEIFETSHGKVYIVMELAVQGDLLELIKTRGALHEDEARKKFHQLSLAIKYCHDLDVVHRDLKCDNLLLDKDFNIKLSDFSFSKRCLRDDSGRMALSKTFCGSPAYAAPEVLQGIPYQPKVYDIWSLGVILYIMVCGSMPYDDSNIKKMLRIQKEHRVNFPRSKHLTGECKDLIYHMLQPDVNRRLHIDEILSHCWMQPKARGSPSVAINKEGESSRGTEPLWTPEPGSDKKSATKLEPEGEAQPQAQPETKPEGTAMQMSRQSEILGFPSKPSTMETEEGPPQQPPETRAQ
# [4] = molecular target: T2, Calcium/calmodulin-dependent protein kinase type IV (Homo sapiens) (UniProt Q16566); assay: Inhibition of full length human N-terminal GST-tagged CAMK4 (1 to 473 residues) expressed in baculovirus expression system using fluorescence labelled GS peptide as substrate at 50 times IC50 by electrophoretic mobility shift assay relative to control
# T2 sequence (whole entry): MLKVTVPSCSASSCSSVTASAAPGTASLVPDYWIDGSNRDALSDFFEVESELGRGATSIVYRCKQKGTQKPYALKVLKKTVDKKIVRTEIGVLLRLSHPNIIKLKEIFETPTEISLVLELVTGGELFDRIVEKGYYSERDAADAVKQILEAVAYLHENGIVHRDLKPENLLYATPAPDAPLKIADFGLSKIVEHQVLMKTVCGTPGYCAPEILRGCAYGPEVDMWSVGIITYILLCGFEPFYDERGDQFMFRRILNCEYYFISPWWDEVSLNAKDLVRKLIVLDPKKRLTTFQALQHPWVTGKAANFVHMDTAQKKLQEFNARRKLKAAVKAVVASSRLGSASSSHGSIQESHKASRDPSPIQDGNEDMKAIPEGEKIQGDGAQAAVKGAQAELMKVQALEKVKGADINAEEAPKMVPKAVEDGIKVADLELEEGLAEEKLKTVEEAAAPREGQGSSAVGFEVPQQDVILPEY
# [5] = molecular target: MAP kinase-activated protein kinase 2 (Homo sapiens) (UniProt P49137); assay: as §1, with “MAPKAPK2” for “TSSK1”, “400” for “367”, “system coexpressing human His-tagged p38beta (1 to 364 residues)/MAP2K6 (1 to 334 residues)” for “system”
# MAP kinase-activated protein kinase 2 (Homo sapiens), sequence (P49137 whole entry, looked up, the tested form may be a part): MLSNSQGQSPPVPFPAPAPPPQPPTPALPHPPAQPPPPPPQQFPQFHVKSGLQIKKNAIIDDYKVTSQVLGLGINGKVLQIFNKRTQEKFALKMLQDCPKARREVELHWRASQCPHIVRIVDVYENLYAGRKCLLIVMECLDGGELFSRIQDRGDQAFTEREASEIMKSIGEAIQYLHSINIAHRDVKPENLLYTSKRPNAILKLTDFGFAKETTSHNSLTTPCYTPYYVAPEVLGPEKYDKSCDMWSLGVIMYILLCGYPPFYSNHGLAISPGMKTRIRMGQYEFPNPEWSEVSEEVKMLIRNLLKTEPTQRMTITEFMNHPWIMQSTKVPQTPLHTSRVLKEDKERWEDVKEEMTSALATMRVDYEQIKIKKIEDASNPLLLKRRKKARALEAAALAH
# [6] = molecular target: T3, Serine/threonine-protein kinase Nek2 (Homo sapiens) (UniProt P51955); assay: Inhibition of full length human N-terminal His-tagged NEK2 (1 to 445 residues) expressed in baculovirus expression system using fluorescence labelled CDK7 peptide substrate at 50 times IC50 by electrophoretic mobility shift assay relative to control
# T3 sequence (whole entry): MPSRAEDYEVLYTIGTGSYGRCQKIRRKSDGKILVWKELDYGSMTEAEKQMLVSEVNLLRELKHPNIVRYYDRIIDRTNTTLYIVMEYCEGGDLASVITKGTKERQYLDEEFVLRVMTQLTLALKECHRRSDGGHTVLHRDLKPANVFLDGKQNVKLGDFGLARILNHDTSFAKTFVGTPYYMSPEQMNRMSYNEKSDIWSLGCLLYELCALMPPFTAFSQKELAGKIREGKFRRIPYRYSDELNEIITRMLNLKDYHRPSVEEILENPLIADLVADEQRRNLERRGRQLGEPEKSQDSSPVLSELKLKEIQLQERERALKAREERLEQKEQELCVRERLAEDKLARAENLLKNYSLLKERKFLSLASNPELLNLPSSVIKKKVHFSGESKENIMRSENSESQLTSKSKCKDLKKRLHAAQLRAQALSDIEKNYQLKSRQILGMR
# [7] = molecular target: Mitogen-activated protein kinase 14 (Homo sapiens) (UniProt Q16539); assay: Inhibition of human N-terminal GST-tagged p38alpha (9 to 352 residues) expressed in Escherichia coli using fluorescence labelled modified Erktide as substrate at 50 times IC50 by electrophoretic mobility shift assay relative to control
# Mitogen-activated protein kinase 14 (Homo sapiens), sequence (Q16539 whole entry, the tested form may be a part): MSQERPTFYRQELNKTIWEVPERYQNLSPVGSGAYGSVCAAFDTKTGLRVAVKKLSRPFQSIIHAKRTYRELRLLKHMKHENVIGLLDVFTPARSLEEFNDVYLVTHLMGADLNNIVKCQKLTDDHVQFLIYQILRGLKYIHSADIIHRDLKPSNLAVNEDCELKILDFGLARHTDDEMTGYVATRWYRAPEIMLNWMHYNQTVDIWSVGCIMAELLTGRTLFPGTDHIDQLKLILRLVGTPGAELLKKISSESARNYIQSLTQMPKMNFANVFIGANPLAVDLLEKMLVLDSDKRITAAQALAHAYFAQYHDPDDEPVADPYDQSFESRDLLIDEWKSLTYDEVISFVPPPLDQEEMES
# [8] = molecular target: Protein kinase C alpha type (Homo sapiens) (UniProt P17252); assay: Inhibition of full length human N-terminal GST-tagged PKCalpha (1 to 672 residues) expressed in baculovirus expression system using fluorescence labelled PKC peptide substrate at 50 times IC50 by electrophoretic mobility shift assay relative to control
# [9] = molecular target: Rho-associated protein kinase 1 (Homo sapiens) (UniProt Q13464); assay: Inhibition of human N-terminal GST-tagged ROCK1 catalytic domain (1 to 477 residues) expressed in baculovirus expression system using fluorescence labelled LIMKtide substrate at 50 times IC50 by electrophoretic mobility shift assay relative to control
# Rho-associated protein kinase 1 (Homo sapiens), sequence (Q13464 2-1354 limits assumed): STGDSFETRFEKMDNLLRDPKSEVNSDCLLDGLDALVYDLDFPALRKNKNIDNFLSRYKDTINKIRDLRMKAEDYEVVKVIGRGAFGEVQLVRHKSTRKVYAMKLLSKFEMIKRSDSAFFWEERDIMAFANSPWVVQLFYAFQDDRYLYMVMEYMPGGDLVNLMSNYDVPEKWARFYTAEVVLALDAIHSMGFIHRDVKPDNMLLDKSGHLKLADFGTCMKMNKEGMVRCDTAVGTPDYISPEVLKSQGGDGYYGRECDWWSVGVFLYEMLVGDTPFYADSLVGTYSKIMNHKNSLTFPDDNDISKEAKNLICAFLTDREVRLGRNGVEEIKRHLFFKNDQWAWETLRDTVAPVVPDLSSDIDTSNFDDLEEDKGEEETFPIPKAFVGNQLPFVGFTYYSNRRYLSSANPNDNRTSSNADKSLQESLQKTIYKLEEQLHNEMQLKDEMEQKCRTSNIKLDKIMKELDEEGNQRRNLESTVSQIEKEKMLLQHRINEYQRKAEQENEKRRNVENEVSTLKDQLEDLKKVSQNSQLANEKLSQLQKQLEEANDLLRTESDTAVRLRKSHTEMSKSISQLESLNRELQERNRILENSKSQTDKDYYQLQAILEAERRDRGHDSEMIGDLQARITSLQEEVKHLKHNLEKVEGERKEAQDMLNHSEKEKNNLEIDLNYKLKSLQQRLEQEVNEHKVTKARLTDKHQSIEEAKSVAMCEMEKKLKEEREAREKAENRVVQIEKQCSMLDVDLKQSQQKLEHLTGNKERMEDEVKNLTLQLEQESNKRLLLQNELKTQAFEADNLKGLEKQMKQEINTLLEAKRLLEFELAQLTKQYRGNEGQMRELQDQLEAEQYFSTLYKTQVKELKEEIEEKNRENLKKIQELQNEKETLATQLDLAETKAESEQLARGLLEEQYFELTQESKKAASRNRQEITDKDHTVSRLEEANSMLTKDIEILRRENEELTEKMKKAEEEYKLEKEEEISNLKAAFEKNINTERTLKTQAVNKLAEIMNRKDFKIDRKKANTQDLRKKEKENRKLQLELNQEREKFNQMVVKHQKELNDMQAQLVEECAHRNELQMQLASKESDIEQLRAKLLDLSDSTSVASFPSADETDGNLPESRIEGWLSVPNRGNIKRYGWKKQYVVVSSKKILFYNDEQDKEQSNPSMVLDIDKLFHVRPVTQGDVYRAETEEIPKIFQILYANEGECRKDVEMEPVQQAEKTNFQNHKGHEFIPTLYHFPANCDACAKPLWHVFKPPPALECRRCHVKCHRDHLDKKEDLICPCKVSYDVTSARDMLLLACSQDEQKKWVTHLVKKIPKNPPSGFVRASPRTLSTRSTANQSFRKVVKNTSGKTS
Structure (SMILES),inhibition [1],inhibition [2],inhibition [3],inhibition [4],inhibition [5],inhibition [6],inhibition [7],inhibition [8],inhibition [9]
O=C(Nc1ccc(CN2CCN(c3ccccc3)CC2)cc1)c1n[nH]c2ccccc12,0.6%,-3.3%,1%,0.8%,9.7%,-2.3%,-2.6%,-0.9%,1.9%
O=C(Nc1ccccc1)c1n[nH]c2ccccc12,6.1%,-2.4%,12.9%,21.2%,5.1%,2.3%,6.9%,2.4%,3.3%
O=C(Nc1ccc(C(=O)N2CCN(c3ccccc3)CC2)cc1)c1n[nH]c2ccccc12,2.5%,-1.1%,4.3%,2.7%,-7.5%,0.2%,-1.8%,10.6%,6.9%
